Key:
[1] = system: p21; assay: p21 expression in the pancreas of mice that received CPX (immunoblot); format: in vivo; conditions: wild type mice, oral CPX 0-25 mg/kg daily for 5 days; effect from as low as 5 mg/kg (FIG. 4)
Procedure: Western Blotting. The mouse islets were treated with CPX 20 μM for 24 h and lysed in RIPA buffer [50 mM Tris, pH 7.2; 150 mM NaCl; 1% sodium deoxycholate; 0.1% SDS; 1% Triton-X 100; 10 mM NaF; 1 mM Na3VO4; protease inhibitor cocktail (1:1000, Sigma, St. Louis, Mo.)] and were subjected to immunoblot analysis by standard methods. Proteins were resolved on a 10% SDS-PAGE and transferred to a nitrocellulose membrane (Bio-Rad, Hercules, Calif.). […] After incubation with enhanced chemiluminescence reagents (Santa Cruz biotechnology Inc.), membranes were analyzed using an Image J software for Windows. To determine if CPX treatment induces p21 levels in the pancreas, mice received orally CPX at 0-25 mg/kg daily for 5 days and the levels of p21 were assessed. […]

[2] = system: pancreatic islets; assay: Islet survival under increasing glucose (glucotoxicity), CellTiter 96 AQueous One; format: cell-based, mice; conditions: for protection from glucotoxicity (islet survival): increasing glucose
Procedure: Islet Isolation and Viability Assessment. Pancreatic islets were manually isolated from female C57BI/6 mice by the collagenase digestion method (Sigma-Aldrich; Li et al. 2009) and placed in a 96-well plate. The islets were incubated at 37° C. with 95% air and 5% CO2. Islets were manually picked after dithizone (DTZ; Sigma Chemical Co) staining. Before experiments were performed, the islet cells were incubated with extracellular Krebs-Ringer (KR) solution (Sigma-Aldrich) and with increasing amounts of glucose for 24 h and 48 h. Islet cell viability was assessed using CellTiter 96 AQueous One Solution Cell Proliferation Assay from Promega (Madison, USA). Islets from wt, p21-deficient, p53-deficient and CHOP-deficient mice were exposed to CPX at 20 μM for 24 h under increasing glucose amounts in the culture media, then they were let to recover for 48 h in normal glucose-containing media and their survival was assessed (FIG. 9). The 48 h recovery in normal media was deemed necessary because CPX, by inducing p21 expression would inflict cell cycle arrest in islets masking the effects of glucotoxicity. […] The p21-stimulatory activity of CPX in the islets is also p53-independent. […] Consistently with its pro-apoptotic role during ER stress CHOP ablation conferred resistance of islets to glucotoxicity (FIG. 10 at B).

[3] = system: C57BI/6 mice; assay: Intraperitoneal insulin tolerance (insulin sensitivity) test; format: in vivo
Procedure: Glucose Level Determination and Intraperitoneal Insulin Tolerance Test. Mice were fasted for 6 h. Glucose levels of mice were measured by an Accu-Chek Active meter (ROCHE) with blood sample obtained from the tail. For glucose tolerance, mice were injected i.p. with 2 g glucose/kg blood glucose was checked at different time points as indicated (at either 0, 30, 60, 90, 120, 160, 220 min.). For insulin resistance test, mice were injected intraperitoneally at a dose of 0.75 units/kg with human insulin (0.75 U/kg body weight; Sigma) at different time points as indicated, as for glucose tolerance after insulin injection and blood glucose was measured as described.

[4] = system: BiP, GRP94 and CHOP; assay: Western blot of ER stress markers in islets in culture; format: cell-based, mouse
Procedure: Western Blotting. The mouse islets were treated with CPX 20 μM for 24 h and lysed in RIPA buffer [50 mM Tris, pH 7.2; 150 mM NaCl; 1% sodium deoxycholate; 0.1% SDS; 1% Triton-X 100; 10 mM NaF; 1 mM Na3VO4; protease inhibitor cocktail (1:1000, Sigma, St. Louis, Mo.)] and were subjected to immunoblot analysis by standard methods. Proteins were resolved on a 10% SDS-PAGE and transferred to a nitrocellulose membrane (Bio-Rad, Hercules, Calif.). Membranes were probed overnight with GADD153 (F-168), sc-575 from Santa Cruz Biotechnology (1:50); p21 (F-5), sc-6246 from Santa Cruz Biotechnology (1:200); actin, clone C4 MAB1501 from Millipore (Billerica, Mass., USA) (1:2000); BiP antibody (cat. no. 3183) from Cell Signaling (Danvers, Mass., USA) (1:1000); GRP94 antibody (H-212), sc-11402 from Santa Cruz Biotechnology (1:500); insulin rabbit polyclonal H-86, sc-9168 from Santa Cruz Biotechnology (1:500) antibodies followed by incubation with horseradish peroxidase-conjugated (HRP) anti-mouse (1:10000), goat anti-rabbit IgG (1:10000, Santa Cruz biotechnology Inc., Santa Cruz, Calif., USA) for 1 hr. After incubation with enhanced chemiluminescence reagents (Santa Cruz biotechnology Inc.), membranes were analyzed using an Image J software for Windows.
In order to understand better how CPX operates in β cells, it was tested to determine if it affected the efficiency by which insulin is produced following glucose stimulation. […] In view of the antidiabetic activity of CPX in vivo, the inhibition of insulin release appears contradictory. […]
While modulation of insulin release by CPX constitutes a challenging mechanism by which CPX may affect ER stress, how CPX regulates insulin expression remains obscure. […] To test this hypothesis, islets were exposed to iron citrate, alone or combined with CPX, and the levels were recorded of chaperones BiP, GRP94 and CHOP, as well as of insulin.

Q: How did the “p21 expression in the pancreas” value [1] turn out when `Cc1cc(C2CCCCC2)n(O)c(=O)c1` [CPX, 6-cyclohexyl-1-hydroxy-4-methylpyridin-2(1H)-one] was run?
A: The value was “effectively stimulated the expression of p21”.

Q: And the “protection from glucotoxicity (islet survival)” value (“protection from glucotoxicity” for short) ([2]; p21-deficient islets, CPX 20 μM 24 h then 48 h recovery (FIG. 10D))?
A: The value was “not p21-deficient animals”.

Q: What about the “protection from glucotoxicity” value ([2]; p53-deficient islets, CPX 20 μM 24 h then 48 h recovery (FIG. 10C)) of the same compound?
A: Its value is “A similar trend was also found for p53”.

Q: And the “protection from glucotoxicity” value ([2]; wt islets, CPX 20 μM 24 h then 48 h recovery (FIG. 10A))?
A: The value was “protected wt”.

Q: And the islet growth ([2]; wt islets, normal glucose, CPX 20 μM 24 h then 48 h recovery (FIG. 10A))?
A: The islet growth was “significantly inhibited islet growth”.

Q: What about the insulin sensitivity ([3]; diabetic mice, CPX vs saline (FIG. 6B)) of the same compound?
A: The insulin sensitivity was “restored the response of diabetic mice to acute administration of glucose”.

Q: What about the insulin sensitivity ([3]; non-diabetic wt mice on normal diet, CPX vs saline (FIG. 7C)) of the same compound?
A: Its insulin sensitivity is “not affected”.

Q: And the “ER stress induction (BiP, GRP94, CHOP)” value ([4]; islets, iron citrate with concomitant CPX (FIG. 12A))?
A: Its value is “compromised the effects of iron citrate”.

Q: What about the “levels of BiP, GRP94 and CHOP” value ([4]; wt islets, high glucose with CPX (FIG. 11)) of the same compound?
A: Its value is “alleviated the levels of BiP, GRP94 and CHOP”.

Source: US10576151B2, “Ciclopirox for use in modulation of glucose homeostasis” (UNIVERSITY OF SOUTH CAROLINA, priority 2015, dated 2020)
